Among the test systems are HOP-92 NSCLC; SNB-75 CNS; K-562 leukemia; DMS 114 small cell lung; SNB-19 CNS; COLO 205 colon; M19-MEL melanoma; M14 melanoma; HCT-15 colon; CAKI-1 renal; MDA-N.
Assay in all cases: growth of human tumour cells (NCI), 48 h

Molecules are shown by their SMILES.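 Following 48 hours of exposure in 96-well plates, responses at five concentrations were used to interpolate endpoints linearly. TGI: concentration producing complete growth inhibition.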

For `O=[N+]([O-])c1cccc(C2=NN(c3ccccc3)C3c4cc(Br)ccc4OCC23)c1` (stereo unspecified), the TGI with HOP-92 NSCLC, with SNB-75 CNS, in the assay with K-562 leukemia, with DMS 114 small cell lung, in the assay with SNB-19 CNS and with COLO 205 colon was greater than 100 µM each time. Besides, in the assay with M19-MEL melanoma, the TGI is greater than 100 µM.
On to `C[C@]12CCC3[C@@H](CCC45OC4C(=O)CC[C@]35C)C1Cc1cnn(-c3ccc(F)cc3)c1N2` (stereo partly specified), for which the TGI in the assay on SNB-75 CNS was greater than 100 µM; in the assay on K-562 leukemia it was 66.8 µM; in the assay on DMS 114 small cell lung, 50.5 µM; in the assay on SNB-19 CNS, 92.6 µM; with M14 melanoma, greater than 100 µM; with COLO 205 colon, greater than 100 µM. Also, the TGI in the assay on HCT-15 colon is 33.9 µM; with M19-MEL melanoma, greater than 100 µM.
Turning to `Cc1cc([N+](=O)[O-])c(C)c2c1[nH]c1ccc(Cl)cc12`, the TGI in the assay on SNB-75 CNS, in the assay with K-562 leukemia, with DMS 114 small cell lung, in the assay on SNB-19 CNS, in the assay with M14 melanoma and in the assay with COLO 205 colon was greater than 100 µM throughout. Further, the TGI with CAKI-1 renal, in the assay on HCT-15 colon and in the assay with M19-MEL melanoma was greater than 100 µM each time.
In the case of `O=[N+]([O-])c1ccc(C[P+]2(c3ccccc3)CCCCC2)cc1`, the TGI with SNB-75 CNS, in the assay with K-562 leukemia, in the assay on DMS 114 small cell lung, with SNB-19 CNS, with M14 melanoma and in the assay with COLO 205 colon was greater than 100 µM throughout. In the assay on HCT-15 colon, this molecule had a TGI greater than 100 µM.
Take `O=C(ON=C1c2ccccc2C(Br)C(Br)c2ccccc21)c1ccccc1` (stereo unspecified): the TGI in the assay with HOP-92 NSCLC was 5.27 µM; in the assay on SNB-75 CNS, greater than 65.9 µM; in the assay with K-562 leukemia it was 8.98 µM; in the assay on SNB-19 CNS, 62.1 µM; in the assay on MDA-N it was 34.5 µM; in the assay on M14 melanoma, 32.6 µM. Further, the TGI in the assay on COLO 205 colon came out at 36.7 µM; with CAKI-1 renal, 23.7 µM; with HCT-15 colon, 42.5 µM.
In the case of `CCOC1C=CC(=O)C(CO)O1` (stereo unspecified), the TGI with HOP-92 NSCLC was found to be 8.29 µM; in the assay on SNB-75 CNS it was 33.5 µM; in the assay with K-562 leukemia it was 26 µM; in the assay on SNB-19 CNS, 42.9 µM; with MDA-N, 31.5 µM; with M14 melanoma, 31.8 µM. For the same molecule, the TGI in the assay on COLO 205 colon was found to be 30.4 µM; in the assay with CAKI-1 renal, 27.3 µM; with HCT-15 colon, 25.3 µM.
With `O=C(CC(NC(=O)C(F)(F)F)C(=O)O)OCc1ccccc1` (stereo unspecified), the TGI in the assay with HOP-92 NSCLC, in the assay on SNB-75 CNS, in the assay with K-562 leukemia, in the assay on SNB-19 CNS, in the assay on MDA-N and in the assay with M14 melanoma was greater than 100 µM each time. In addition, the TGI with COLO 205 colon, with CAKI-1 renal and in the assay on HCT-15 colon was greater than 100 µM in each case.
For the molecule `COc1ccc(N=Nc2c(-c3c(OC)cc4occc4c3OC)[nH]c(=O)c(C#N)c2C)cc1`, the TGI in the assay on HOP-92 NSCLC, in the assay on SNB-75 CNS, in the assay with K-562 leukemia, in the assay on SNB-19 CNS, in the assay with MDA-N and in the assay on M14 melanoma was greater than 100 µM throughout. Moreover, the TGI with COLO 205 colon, with CAKI-1 renal and with HCT-15 colon was greater than 100 µM each time.
On to `S=C(Cc1ccc2c(c1)Sc1ccccc1O2)N1CCOCC1`, for which the TGI with HOP-92 NSCLC was greater than 100 µM; with SNB-75 CNS it was 60.6 µM; in the assay on K-562 leukemia, greater than 100 µM; with SNB-19 CNS, greater than 100 µM; in the assay on MDA-N, greater than 100 µM; in the assay with M14 melanoma, greater than 100 µM. In addition, the TGI with COLO 205 colon, in the assay with CAKI-1 renal and in the assay on HCT-15 colon was greater than 100 µM throughout.
For the molecule `COc1ccc2nc(NC(=O)/C(C#N)=C/c3ccccc3)sc2c1`, the TGI is greater than 100 µM in the assay with HOP-92 NSCLC; greater than 87.8 µM in the assay with SNB-75 CNS; greater than 95.2 µM in the assay on K-562 leukemia; greater than 100 µM in the assay with SNB-19 CNS; greater than 100 µM in the assay with MDA-N; greater than 100 µM with M14 melanoma. In addition, the TGI in the assay with COLO 205 colon, in the assay with CAKI-1 renal and in the assay on HCT-15 colon was greater than 100 µM each time.
Consider `CC(C)NC(=O)OCc1c(COC(=O)NC(C)C)n(C)c2c1ccc1sccc12`, for which the TGI in the assay on HOP-92 NSCLC is 27.3 µM; in the assay on SNB-75 CNS, 32.4 µM; in the assay on K-562 leukemia it was greater than 52.2 µM; in the assay on SNB-19 CNS, greater than 100 µM; with MDA-N, 42.8 µM; in the assay with M14 melanoma, 36.7 µM. The TGI in the assay on COLO 205 colon is 37.9 µM; in the assay with CAKI-1 renal, 50.1 µM; with HCT-15 colon, greater than 52.3 µM.
On to `CCOC(=O)CSc1nc(N)c2c(-c3ccccc3)c3c(nc2n1)CCCC3`, for which the TGI with HOP-92 NSCLC, in the assay with SNB-75 CNS, in the assay with K-562 leukemia, with SNB-19 CNS, in the assay on MDA-N and with M14 melanoma was greater than 100 µM in each case. For the same molecule, the TGI with COLO 205 colon, in the assay on CAKI-1 renal and in the assay on HCT-15 colon was greater than 100 µM throughout.
`NS(=O)(=O)c1nnc(NC(=O)N(c2ccccc2)c2ccccc2)s1`: the TGI in the assay on HOP-92 NSCLC is 53 µM; in the assay with SNB-75 CNS, 72.4 µM; in the assay with K-562 leukemia it was greater than 100 µM; in the assay on SNB-19 CNS, greater than 100 µM; in the assay with MDA-N, 88.3 µM; in the assay on M14 melanoma, 35.3 µM. Besides, the TGI in the assay with COLO 205 colon, with CAKI-1 renal and with HCT-15 colon was greater than 100 µM in each case.
Regarding `O=C(CCc1cc(O)cc(O)c1)NCCc1cc(OCc2ccccc2)cc(OCc2ccccc2)c1`, the TGI amounted to 45.3 µM in the assay on HOP-92 NSCLC; 24.5 µM in the assay on SNB-75 CNS; 29.7 µM in the assay on K-562 leukemia; 7.17 µM with SNB-19 CNS; 35 µM in the assay on MDA-N; 34.8 µM with M14 melanoma. Moreover, the TGI in the assay with COLO 205 colon worked out at 44.3 µM; in the assay with CAKI-1 renal, 36.8 µM; with HCT-15 colon it was 29.8 µM.
Consider `CCCCCCN(CCCCCC)C(=S)N/N=C(\C)c1ccccn1`, for which the TGI turned out to be 6.43 µM in the assay with HOP-92 NSCLC; 3.68 µM in the assay on SNB-75 CNS; 4.64 µM in the assay with K-562 leukemia; 2.29 µM with DMS 114 small cell lung; 3.92 µM in the assay on SNB-19 CNS; 5.56 µM in the assay on MDA-N. In addition, the TGI stood at 3.29 µM in the assay with M14 melanoma, 2.14 µM in the assay on COLO 205 colon, 2.68 µM with CAKI-1 renal and 3.4 µM with HCT-15 colon.
